# Reference: US20030162722A1, “Pharmaceutical compositions comprising acryloyl distamycin derivatives and topoisomerase I and II inhibitors” (priority 2000, published 2003)
# System: disseminated L1210 murine leukemia
# Assay: Antileukemic activity against disseminated L1210 murine leukemia
# Conditions: PNU 166196 0.52 mg/kg; for ILS % (increase in life span) / Tox (number of toxic deaths/number of mice): L1210 cells 10^5/mouse CD2F1 IV day 0, treatment iv day +1, doxorubicin 10 mg/kg (given 2 h after PNU 166196), alone or combined at the same doses
# From the text: For these experiments, PNU 166196 and doxorubicin were solubilized in water for injection.
Compound,ILS % (increase in life span) [%],Tox (number of toxic deaths/number of mice),"toxicity (in words) (single agents, iv day +1, doxorubicin 10 mg/kg)"
"C=C(Br)C(=O)Nc1cc(C(=O)Nc2cc(C(=O)Nc3cc(C(=O)Nc4cc(C(=O)NCCNC(=N)N)n(C)c4)n(C)c3)n(C)c2)n(C)c1.Cl [PNU 166196, N-(5-{[(5-{[(5-{[(2-{[amino(imino)methyl]amino}ethyl)amino]carbonyl}-1-methyl-1H-pyrrol-3-yl)amino]carbonyl}-1-methyl-1H-pyrrol-3-yl)amino]carbonyl}-1-methyl-1H-pyrrol-3-yl)-4-[(2-bromoacryloyl)amino]-1-methyl-1H-pyrrole-2-carboxamide hydrochloride]",33,0/10,without toxicity
"COc1cccc2c1C(=O)c1c(O)c3c(c(O)c1C2=O)C[C@@](O)(C(=O)CO)C[C@@H]3O[C@H]1C[C@H](N)[C@H](O)[C@H](C)O1 [Doxorubicin, doxorubicin, reference compound]",58,0/10,–
